Laboratory results published in patent US20240116990A1, “Compositions and Methods of Treatment Using CRRL 191” (Mayo Foundation for Medical Education and Research, priority 2022, published 2024).
Bridge positions count the residues as written; N and C are the ends.

What was measured:
[1] = target: T1, human GC-A (Homo sapiens, UniProt P16066); assay: cGMP production in HEK293 cells overexpressing GC-A, 10 min stimulation; format: cell-based; design: Mean (intracellular cGMP): unit not given here; details: for Mean (intracellular cGMP): 10 min, HEK293 GC-A cells
T1 construct: host or cells: HEK293
T1 sequence (P16066 33-1061): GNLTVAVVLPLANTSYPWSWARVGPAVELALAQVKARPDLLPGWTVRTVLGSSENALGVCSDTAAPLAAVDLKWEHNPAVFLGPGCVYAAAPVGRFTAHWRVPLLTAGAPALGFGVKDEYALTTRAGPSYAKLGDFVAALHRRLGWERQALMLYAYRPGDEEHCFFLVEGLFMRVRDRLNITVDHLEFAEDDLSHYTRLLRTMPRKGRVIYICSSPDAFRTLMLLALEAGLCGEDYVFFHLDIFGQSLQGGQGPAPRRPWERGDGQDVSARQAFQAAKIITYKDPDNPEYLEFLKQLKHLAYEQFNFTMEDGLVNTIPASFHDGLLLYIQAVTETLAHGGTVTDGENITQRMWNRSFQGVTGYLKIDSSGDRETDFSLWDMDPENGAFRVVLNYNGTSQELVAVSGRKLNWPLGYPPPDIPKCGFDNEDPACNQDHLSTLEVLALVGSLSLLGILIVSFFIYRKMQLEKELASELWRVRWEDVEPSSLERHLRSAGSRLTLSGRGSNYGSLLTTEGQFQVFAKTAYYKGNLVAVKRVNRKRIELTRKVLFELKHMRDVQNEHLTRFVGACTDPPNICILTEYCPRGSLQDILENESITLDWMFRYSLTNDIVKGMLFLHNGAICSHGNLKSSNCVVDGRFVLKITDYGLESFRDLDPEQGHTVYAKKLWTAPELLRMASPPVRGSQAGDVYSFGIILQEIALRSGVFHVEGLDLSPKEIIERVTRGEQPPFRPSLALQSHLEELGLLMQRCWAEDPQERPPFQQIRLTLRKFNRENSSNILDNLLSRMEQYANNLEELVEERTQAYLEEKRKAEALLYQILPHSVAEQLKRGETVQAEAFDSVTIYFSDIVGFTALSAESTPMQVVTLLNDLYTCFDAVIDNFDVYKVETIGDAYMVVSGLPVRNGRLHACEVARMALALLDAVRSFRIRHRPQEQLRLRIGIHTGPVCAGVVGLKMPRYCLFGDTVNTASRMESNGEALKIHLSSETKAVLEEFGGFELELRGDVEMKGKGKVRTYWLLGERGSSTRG
Description: (§1) HEK293 cells stably transfected with human GC-A (cDNA clones from Origene, Rockville, MD) using Lipofectamine (Invitrogen, Grand Island, NY), are developed. Receptor overexpression is verified with immunofluorescence and western blotting. GC-A-transfected HEK293 (HEK/GCA) cells are maintained in Dulbecco's modified Eagle's medium (DMEM) supplemented with 10% fetal bovine serum (FBS), 100 U/ml penicillin, 100 U/ml streptomycin and 250 μg/ml G418.
(§2) Two in vitro cGMP assays are performed. Briefly, HEK/GCA cells are seeded in 48-well plates and cultured overnight to 80-90% confluency. The treatment buffer used in all experiments comprises Hank's Balanced Salt Solution (HBSS), 0.1% bovine serum albumin (BSA), 2 mM HEPES, and 0.5 mM 3-isobutyl-1-methylxanthine (IBMX, a non-specific phosphodiesterase inhibitor) (Sigma, St. Louis, MO).
(§3) After treatment, all cells are washed with phosphate buffered solution (PBS) once and lysed with 0.1M HCl.

[2] = target: T1, human GC-A; assay: cGMP production over 6 hours in HEK/GCA cells; format: cell-based; details: 10^−8 M, FIG. 2
Description: as §1, §2, §3

[3] = target: recombinant human neprilysin (NEP) (Homo sapiens, UniProt P08473); assay: In vitro neprilysin degradation assay (residual cGMP generation in HEK/GCA cells); details: for original bioactivity retained: 37° C.
Description: Briefly, 5 μl of 2×10^−5 M peptide is incubated with 5 μl (10 ng/μl) recombinant NEP in 90 μl Tris/0.1% BSA buffer (50 mM Tris-HCl, pH 7.5, 150 mM NaCl, 5 mM MgCl2, 0.1% BSA) at 37° C. for various lengths of time ranging from 15 min to 24 hours. Peptides for the 0-min timepoint are incubated without NEP (buffer only). After incubation for the required length of time (0-min to 24-hour), 100 μl of 0.5 N perchloric acid is added to the reaction solution to inactivate NEP and stop degradation, and 20 μl of 2.5 N NaOH is added to neutralize the solution. The neutralized reaction aliquot is added to HEK/GCA cells and the residual capability of the undegraded peptide (diluted to a final concentration 5.5×10^−8 M) to produce cGMP is measured using the same commercial cGMP ELISA kit (Enzo Life Sciences, Farmingdale, NY) as described in Example 2, following the instructions of the manufacturer.

[4] = tested on: Spontaneously Hypertensive Rats (SHR); assay: Plasma cGMP in spontaneously hypertensive rats; format: in vivo, rat
Description: All rat experiments are conducted following the Animal Welfare Act and the protocol is approved by the Mayo Clinic Institutional Animal Care and Use Committee (IACUC). […] Rats are included only if they are deemed healthy by the Institutional Veterinarian Department. Investigators who conduct the in vivo study are not blinded to treatments, but biochemical analysis is performed by a different investigator who is blinded to treatment.
On the day of the experiment, SHR rats are anesthetized with inactin (120 mg/kg, intraperitoneal injection, Sigma, St. Louis, MO). Rats are then kept on a heating pad at 38° C. to maintain a normal body temperature for the entire study. Vascular and bladder cannulation procedures are conducted. Briefly, a polyethylene-50 (PE-50) tube catheter is placed into one jugular vein for peptide infusion and another PE-50 tube is placed into the carotid artery for blood pressure (BP) monitoring (Sonometrics, London, Ontario, Canada) and blood sampling. After instrumentation, a 15-minute equilibrium period follows, and a 30-minute pre-infusion period is performed to collect baseline urine samples.
Four blood samples are collected to determine circulating cGMP levels: at baseline, before the end of drug infusion, at the middle of the washout clearance period, and before the end of the washout clearance period. Any blood loss in the rats is replaced with an equal volume of saline. BP is monitored and recorded every 15 minutes beginning after the initiation of peptide infusion. All collected blood are stored at −80° C. until assayed.
For the biochemical analysis, plasma cGMP levels are measured with a cGMP ELISA kit (Enzo Life Sciences, Farmingdale, NY).

[5] = 100 pmol/kg and 300 pmol/kg doses, FIG. 9B

Sequence of recombinant human neprilysin (NEP) (P08473 whole entry): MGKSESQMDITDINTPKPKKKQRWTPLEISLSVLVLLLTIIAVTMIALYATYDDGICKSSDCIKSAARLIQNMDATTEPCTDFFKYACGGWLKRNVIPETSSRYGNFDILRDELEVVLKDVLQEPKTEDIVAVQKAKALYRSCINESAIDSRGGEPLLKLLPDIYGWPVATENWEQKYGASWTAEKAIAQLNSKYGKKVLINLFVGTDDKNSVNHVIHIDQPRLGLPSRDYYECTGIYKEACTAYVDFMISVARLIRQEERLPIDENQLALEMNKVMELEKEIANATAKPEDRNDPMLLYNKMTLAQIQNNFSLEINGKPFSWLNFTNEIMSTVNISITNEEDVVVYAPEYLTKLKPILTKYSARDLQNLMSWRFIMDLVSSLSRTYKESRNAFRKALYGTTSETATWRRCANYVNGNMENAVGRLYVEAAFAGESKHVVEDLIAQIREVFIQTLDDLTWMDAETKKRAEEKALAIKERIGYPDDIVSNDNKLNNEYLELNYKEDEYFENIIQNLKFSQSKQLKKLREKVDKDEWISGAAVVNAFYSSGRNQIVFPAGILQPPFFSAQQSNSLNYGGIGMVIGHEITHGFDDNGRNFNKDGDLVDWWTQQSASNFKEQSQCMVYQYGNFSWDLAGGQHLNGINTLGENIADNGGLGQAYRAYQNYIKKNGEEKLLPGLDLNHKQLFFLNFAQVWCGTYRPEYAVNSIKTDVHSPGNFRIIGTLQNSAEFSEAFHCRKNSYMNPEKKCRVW

H-RALLTAPRSLRRSSCFGHKIDRINHVSNLGCNSFRYRITAREDKQGWA-OH (disulfide 15-31) [CRRL 191]
EC50 [1]: 0.48 nM
Mean (intracellular cGMP) ([1]; 10^−6 M peptide): 135.48
Mean (intracellular cGMP) ([1]; 10^−7 M peptide): 140.84
Mean (intracellular cGMP) ([1]; 10^−8 M peptide): 152.04
Mean (intracellular cGMP) ([1]; 10^−9 M peptide): 89.94
Mean (intracellular cGMP) ([1]; 10^−10 M peptide): 35.57
Mean (intracellular cGMP) ([1]; 10^−12 M peptide): 2.57
EC50 potency compared to ANP ([1]; 10 minutes of stimulation): greater potency
GC-A activation / cGMP production up to about 30 minutes [2]: increases in cGMP production at the same rate
GC-A activation / cGMP production after 30 minutes ([2]; up to 6 hours): continues to increase up to at least 6 hours
resistance to degradation by neprilysin compared to ANP ([3]; FIG. 3): highly resistant
original bioactivity retained ([3]; after 30 minutes of neprilysin degradation): about 90%
original bioactivity retained ([3]; after 6 hours of neprilysin degradation): 84%
activating cGMP in plasma compared to ANP [4, 5]: more potent
duration of plasma cGMP activation after peptide administration compared to ANP [4, 5]: more sustained activation
plasma cGMP levels ([4]; iv infusion, FIG. 9A): increase
